Measured values from ChEMBL document CHEMBL1128033, “Design and synthesis of new leads for PKC bisubstrate inhibitors” (Bioorg Med Chem Lett, 1994).

Experiments:
[1] = biological target: Protein kinase C (PKC); assay: Inhibition of protein kinase C (PKC) using histone III S protein; type: protein assay
[2] = biological target: cAMP-dependent protein kinase (PKA) (Homo sapiens, UniProt P22694+P17612+P22612); assay: Inhibition of c-AMP dependent kinase (PKA) using histone II A protein; type: protein assay

Structure (SMILES)	IC50 [1] [µM]	IC50 [2] [µM]
C[C@H]1CNCCN1S(=O)(=O)c1cccc2cnccc12	6	–
NCCCCCCNC1=C(c2cc3ccccc3[nH]2)C(=O)NC1=O	40	50
NC(CCC(=O)O)C(=O)NCCCCCNC1=C(c2cc3ccccc3[nH]2)C(=O)NC1=O (stereo not drawn)	105	390
NC(Cc1ccccc1)C(=O)NCCCCCNC1=C(c2cc3ccccc3[nH]2)C(=O)NC1=O (stereo not drawn)	120	–
NCCCCCCCNC1=C(c2cc3ccccc3[nH]2)C(=O)NC1=O	5	150
NCCNC1=C(c2cc3ccccc3[nH]2)C(=O)NC1=O	90	100
NC(N)=NCCCC(N)C(=O)NCCNCCCCCNC1=C(c2cc3ccccc3[nH]2)C(=O)NC1=O (stereo not drawn)	8	210
NC(N)=NCCCC(N)C(=O)NCCCCCNC1=C(c2cc3ccccc3[nH]2)C(=O)NC1=O (stereo not drawn)	60	–
NCCCNCCCNC1=C(c2cc3ccccc3[nH]2)C(=O)NC1=O	100	390
NC(Cc1ccccc1)C(=O)NCCNCCCCCNC1=C(c2cc3ccccc3[nH]2)C(=O)NC1=O (stereo not drawn)	95	120
NCCNCCNC1=C(c2cc3ccccc3[nH]2)C(=O)NC1=O	120	310
NCCNCCCCCNC1=C(c2cc3ccccc3[nH]2)C(=O)NC1=O	110	> 500
NCCCCCNC1=C(c2cc3ccccc3[nH]2)C(=O)NC1=O	8	300
